According to patent US20240391862A1, “(1,4,5-TRISUBSTITUTED-1H-PYRAZOL-3-YL)OXY-2-ALKOXY ALKYL ACIDS AND THEIR DERIVATIVES, THEIR SALTS AND THEIR USE AS HERBICIDAL AGENTS” (Bayer AKtiengesellschaft, priority 2021, published 2024):

Columns and labels:
VIOTR = experiment: Post-emergence herbicidal effect, greenhouse pot test; assay type: in vivo, Viola tricolor; conditions: Viola tricolor, 504 h, 320 g/ha, read-out: Post-emergence effect against VIOTR in %
In short: (§1)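 Weeds sown in sandy loam, greenhouse-grown 2–3 weeks, then sprayed at one-leaf stage with WP or EC formulations in water plus 0.5% additive at 600 l/ha. Rates 20 to 320 g/ha. Visual rating after about 3 weeks versus untreated controls (100% = plants dead, 0% = like control).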

ALOMY [1] = experiment: as above; assay type: in vivo, Alopecurus myosuroides; conditions: Alopecurus myosuroides, 504 h, visual rating about 3 weeks after treatment, read-out: Post-emergence effect against ALOMY
In short: as §1

TRZAS = experiment: Pre-emergence herbicidal effect and crop plant compatibility, greenhouse pot test; assay type: in vivo, Triticum aestivum; conditions: 80 g/ha, scored visually after about 3 weeks vs untreated controls
Source text: (§2) Seeds of monocotyledonous and dicotyledonous weed plants and crop plants are placed in plastic or organic planting pots and covered with soil. The compounds of the invention, formulated in the form of wettable powders (WP) or as emulsion concentrates (EC), are then applied to the surface of the covering soil as aqueous suspension or emulsion with addition of 0.5% additive at a water application rate equivalent to 600 l/ha. After the treatment, the pots are placed in a greenhouse and kept under good growth conditions for the trial plants. After about 3 weeks, the effect of the preparations is scored visually in comparison with untreated controls as percentages. For example, 100% activity=the plants have died, 0% activity=like control plants.
(§3) Tables 1a to 19c below show the effects/crop compatibilities of selected compounds of the general formula (I) on various harmful plants at an application rate corresponding to 20 to 320 g/ha, which were obtained by the trial procedure specified above.
(§4) • ALOMY: Alopecurus myosuroides SETVI: Setaria viridis • AVEFA: Avena fatua POLCO: Fallopia convolvulus • AMARE: Amaranthus retroflexus ECHCG: Echinochloa crus-galli • LOLRJ: Lolium rigidum STEME: Stellaria media • VERPE: Veronica persica MATIN: Tripleurospermum inodorum • DIGSA: Digitaria sanguinalis ABUTH: Abutylon threophrasti • TRZAS: Triticum aestivum VIOTR: Viola tricolor • BRSNW: Brassica napus ZEAMX: Zea mays • PHBPU: Ipomoea purpurea GLXMA: Glycine max • ORYSA: Oryza sativa HORMU: Hordeum murinum

POLCO [2] = experiment: Pre-emergence herbicidal effect, greenhouse pot test; assay type: in vivo, Fallopia convolvulus; conditions: Fallopia convolvulus, 504 h, 320 g/ha, scored visually after about 3 weeks vs untreated controls, read-out: Pre-emergence effect at 320 g/ha against POLCO in %
Source text: as §2, §3, §4

ALOMY [3] = experiment: as above; assay type: in vivo, Alopecurus myosuroides; conditions: 320 g/ha, scored visually after about 3 weeks vs untreated controls
Source text: as §2, §3, §4

ECHCG [4] = experiment: as above; assay type: in vivo, Echinochloa crus-galli; conditions: Echinochloa crus-galli, 504 h, 320 g/ha, scored visually after about 3 weeks vs untreated controls, read-out: Pre-emergence effect at 320 g/ha against ECHCG in %
Source text: as §2, §3, §4

SETVI [5] = experiment: Post-emergence herbicidal effect, greenhouse pot test; assay type: in vivo, Setaria viridis; conditions: Setaria viridis, 504 h, read-out: Post-emergence effect against SETVI in %
In short: as §1

ECHCG [6] = experiment: as above; assay type: in vivo, Echinochloa crus-galli; conditions: Echinochloa crus-galli, 504 h, read-out: Post-emergence effect against ECHCG in %
In short: as §1

MATIN [7] = experiment: as above; assay type: in vivo, Tripleurospermum inodorum; conditions: Tripleurospermum inodorum, 504 h, read-out: Post-emergence effect against MATIN in %
In short: as §1

AMARE = experiment: Pre-emergence herbicidal effect, greenhouse pot test; assay type: in vivo, Amaranthus retroflexus; conditions: scored visually after about 3 weeks vs untreated controls; for pest or weed control at 320 g/ha: Amaranthus retroflexus, 504 h, read-out: Pre-emergence effect at 320 g/ha against AMARE in %
Source text: as §2, §3, §4

PHBPU [8] = experiment: Post-emergence herbicidal effect, greenhouse pot test; assay type: in vivo, Ipomoea purpurea; conditions: Ipomoea purpurea, 504 h, read-out: Post-emergence effect against PHBPU in %
In short: as §1

MATIN [9] = experiment: Pre-emergence herbicidal effect, greenhouse pot test; assay type: in vivo, Tripleurospermum inodorum; conditions: scored visually after about 3 weeks vs untreated controls; for pest or weed control at 320 g/ha: Tripleurospermum inodorum, 504 h, read-out: Pre-emergence effect at 320 g/ha against MATIN in %
Source text: as §2, §3, §4

PHBPU [10] = experiment: as above; assay type: in vivo, Ipomoea purpurea; conditions: 320 g/ha, scored visually after about 3 weeks vs untreated controls
Source text: as §2, §3, §4

AVEFA [11] = experiment: Post-emergence herbicidal effect, greenhouse pot test; assay type: in vivo, Avena fatua; conditions: Avena fatua, 504 h, 320 g/ha, visual rating about 3 weeks after treatment, read-out: Post-emergence effect against AVEFA
In short: as §1

GLXMA = experiment: Pre-emergence herbicidal effect and crop plant compatibility, greenhouse pot test; assay type: in vivo, Glycine max; conditions: 80 g/ha, scored visually after about 3 weeks vs untreated controls
Source text: as §2, §3, §4

VERPE = experiment: Post-emergence herbicidal effect, greenhouse pot test; assay type: in vivo, Veronica persica; conditions: Veronica persica, 504 h, read-out: Post-emergence effect against VERPE in %
In short: as §1

AVEFA [12] = experiment: Pre-emergence herbicidal effect, greenhouse pot test; assay type: in vivo, Avena fatua; conditions: 320 g/ha, scored visually after about 3 weeks vs untreated controls
Source text: as §2, §3, §4

ZEAMX = experiment: Pre-emergence herbicidal effect and crop plant compatibility, greenhouse pot test; assay type: in vivo, Zea mays; conditions: 80 g/ha, scored visually after about 3 weeks vs untreated controls
Source text: as §2, §3, §4

LOLRI [13] = experiment: Pre-emergence herbicidal effect, greenhouse pot test; assay type: in vivo, Lolium rigidum; conditions: 320 g/ha, scored visually after about 3 weeks vs untreated controls
Source text: as §2, §3, §4

SETVI [14] = experiment: as above; assay type: in vivo, Setaria viridis; conditions: Setaria viridis, 504 h, 320 g/ha, scored visually after about 3 weeks vs untreated controls, read-out: Pre-emergence effect at 320 g/ha against SETVI in %
Source text: as §2, §3, §4

DIGSA [15] = experiment: as above; assay type: in vivo, Digitaria sanguinalis; conditions: 320 g/ha, scored visually after about 3 weeks vs untreated controls
Source text: as §2, §3, §4

POLCO [16] = experiment: Post-emergence herbicidal effect, greenhouse pot test; assay type: in vivo, Fallopia convolvulus; conditions: Fallopia convolvulus, 504 h, read-out: Post-emergence effect against POLCO in %
In short: as §1

DIGSA [17] = experiment: as above; assay type: in vivo, Digitaria sanguinalis; conditions: Digitaria sanguinalis, 504 h, visual rating about 3 weeks after treatment, read-out: Post-emergence effect against DIGSA
In short: as §1

LOLRI [18] = experiment: as above; assay type: in vivo, Lolium rigidum; conditions: Lolium rigidum, 504 h, read-out: Post-emergence effect against LOLRI in %
In short: as §1

**Q.** With `COC(=O)C(OC)Oc1nn(-c2ncccc2F)c(-c2ccccc2)c1Br` (centres unmarked) [Example I-06] as the compound, how does the pest or weed control at 320 g/ha (VIOTR) read?
**A.** 80%

**Q.** And the pest or weed control at 80 g/ha (ALOMY [1])?
**A.** 90%

**Q.** What about the pest or weed control at 320 g/ha (ALOMY [1]) of the same compound?
**A.** 90%

**Q.** What about the “Pre-emergence effect at 80 g/ha against TRZAS in %” value (TRZAS) of the same compound?
**A.** 10%

**Q.** What about the pest or weed control at 320 g/ha (POLCO [2]) of the same compound?
**A.** 80%

**Q.** What about the “Pre-emergence effect at 320 g/ha against ALOMY in %” value (ALOMY [3]) of the same compound?
**A.** 90%

**Q.** And the pest or weed control at 320 g/ha (ECHCG [4])?
**A.** 100%

**Q.** What about the pest or weed control at 80 g/ha (SETVI [5]; 80 g/ha) of the same compound?
**A.** 80%

**Q.** What about the pest or weed control at 320 g/ha (SETVI [5]) of the same compound?
**A.** 80%

**Q.** And the pest or weed control at 80 g/ha (ECHCG [6])?
**A.** 80%

**Q.** And the pest or weed control at 320 g/ha (ECHCG [6])?
**A.** 80%

**Q.** What about the pest or weed control at 80 g/ha (MATIN [7]; 80 g/ha) of the same compound?
**A.** 80%

**Q.** And the pest or weed control at 320 g/ha (MATIN [7])?
**A.** 80%

**Q.** What about the “Pre-emergence effect at 80 g/ha against AMARE in %” value (AMARE) of the same compound?
**A.** 90%

**Q.** And the pest or weed control at 320 g/ha (AMARE)?
**A.** 100%

**Q.** What about the pest or weed control at 80 g/ha (PHBPU [8]; 80 g/ha) of the same compound?
**A.** 80%

**Q.** And the pest or weed control at 320 g/ha (PHBPU [8])?
**A.** 80%

**Q.** And the “Pre-emergence effect at 80 g/ha against MATIN in %” value (MATIN [9]; 80 g/ha)?
**A.** 80%

**Q.** And the pest or weed control at 320 g/ha (MATIN [9])?
**A.** 90%

**Q.** And the “Pre-emergence effect at 320 g/ha against PHBPU in %” value (PHBPU [10])?
**A.** 90%

**Q.** And the pest or weed control at 320 g/ha (AVEFA [11])?
**A.** 80%

**Q.** And the “Pre-emergence effect at 80 g/ha against GLXMA in %” value (GLXMA)?
**A.** 10%

**Q.** What does the source list for `COC(=O)C(OC)Oc1nn(-c2ncccc2F)c(-c2ccc(F)cc2F)c1Br` (centres unmarked) [Example I-07]?
**A.** pest or weed control at 80 g/ha (ALOMY [1]): 90%; pest or weed control at 320 g/ha (ALOMY [1]): 90%; Pre-emergence effect at 80 g/ha against TRZAS in % (TRZAS): 20%; pest or weed control at 320 g/ha (POLCO [2]): 80%; pest or weed control at 80 g/ha (VERPE; 80 g/ha): 80%; pest or weed control at 320 g/ha (VERPE; 320 g/ha): 80%; pest or weed control at 320 g/ha (ECHCG [4]): 90%; Pre-emergence effect at 320 g/ha against AVEFA in % (AVEFA [12]): 80%; pest or weed control at 320 g/ha (SETVI [5]): 80%; Pre-emergence effect at 80 g/ha against ZEAMX in % (ZEAMX): 10%; Pre-emergence effect at 320 g/ha against LOLRI in % (LOLRI [13]): 90%; pest or weed control at 320 g/ha (SETVI [14]): 100%; Pre-emergence effect at 320 g/ha against DIGSA in % (DIGSA [15]): 90%; pest or weed control at 80 g/ha (ECHCG [6]): 80%; pest or weed control at 320 g/ha (ECHCG [6]): 80%; pest or weed control at 320 g/ha (MATIN [7]): 80%; Pre-emergence effect at 80 g/ha against AMARE in % (AMARE): 80%; pest or weed control at 320 g/ha (AMARE): 90%; pest or weed control at 80 g/ha (POLCO [16]; 80 g/ha): 80%; pest or weed control at 320 g/ha (POLCO [16]; 320 g/ha): 90%; pest or weed control at 320 g/ha (PHBPU [8]): 80%; pest or weed control at 80 g/ha (DIGSA [17]; 80 g/ha): 80%; pest or weed control at 320 g/ha (DIGSA [17]; 320 g/ha): 90%; pest or weed control at 80 g/ha (LOLRI [18]; 80 g/ha): 80%; pest or weed control at 320 g/ha (LOLRI [18]; 320 g/ha): 80%; pest or weed control at 320 g/ha (MATIN [9]): 90%; Pre-emergence effect at 320 g/ha against PHBPU in % (PHBPU [10]): 90%; Pre-emergence effect at 80 g/ha against GLXMA in % (GLXMA): 10%
